We go through one molecule from patent EP4186500A1, “MEK INHIBITORS FOR THE PREVENTION AND TREATMENT OF LONG COVID SYNDROME” (Atriva Therapeutics GmbH, priority 2021, dated 2023).

Where two headings read alike, the source gives them in different places.

In test [1] the test system is SARS-CoV-2 SA variant B.1351. The class given is cell-based, Severe acute respiratory syndrome coronavirus. The conditions noted are these: MOI 0.1, 1 and 10, 50, 75 and 100µM, 24 hours.
The test system of a further test is SARS-CoV-2 (FI). It is filed as cell-based, Severe acute respiratory syndrome coronavirus. Particulars: ATR-002 100 µM.

With `O=C(O)c1ccc(F)c(F)c1Nc1ccc(I)cc1Cl` [ATR-002, 2-(2-chloro-4-iodophenylamino)-N-3,4-difluoro benzoic acid], the virus yield result in test [1] (Calu-3 cells) and in test [1] (Vero cells) was “reduction of virus yield” each time. For the same molecule, the “production of progeny viral particles” value is on record as “reduced the production of progeny viral particles” in the test on SARS-CoV-2 (FI) (A549-ACE2/TMPRSS2 cells, MOI of 0.001); “did not affect the production of progeny viral particles” in the test on SARS-CoV-2 (FI) (A549-ACE2/TMPRSS2 cells, MOI: 0.01); “reduced the production of progeny viral particles” in the test on SARS-CoV-2 (FI) (Calu-3 cells, MOI of 0.001).
